Reference: US7053178B2, “Synthetic peptides and kits for diagnosis of anti-phospholipid syndrome” (Yeda Research Development Co., LTD, priority 1998, dated 2006)
Where no end group is shown, it is not given here.

Columns and labels:
[1] = system: experimental APS induced by anti-β2GPI mAb G-3; assay: Murine experimental APS induced by G-3 mAb; type: in vivo, BALB/c mice; conditions: mice infused with G-3 mAb, peptide 40 μg/mouse daily 3 days, day 15
Experimental: (§1) (i) Mice: Female BALB/c mice, aged 10–12 weeks, were purchased from Tel-Aviv University Animal House, Israel. The females were caged overnight with BALB/c males and examined for vaginal plug next morning. The presence of the plug was considered as day 0 of pregnancy in all the studied groups. (j) Induction of murine experimental APS. Mice were infused intravenously with 20 μg of each one of the anti-β2GPI ILA-1, ILA-3, and G-3 mAbs at day 0 (the day at which a vaginal plug was observed following mating) (Blank et al., 1991), 6 hours later the mice received daily 40 μg/mouse of the tested peptides during 3 days. The mice were bled and sacrificed on day 15 of pregnancy. Fetal resorptions, activated partial thromboplastin time and platelet counts (markers of the APS-equivalent in mice) were determined as described (Blank et al., 1991). Significant fetal loss, thrombocytopenia and prolonged activated thromboplastin time (aPTT) were induced in naive mice following passive intravenous administration of the three anti-β2GPI mAbs ILA-1, ILA-3 and G-3, as described in Materials and Methods, section (j). The clinical manifestations of the experimental APS were prevented by infusion of the specific peptide monomers A, B, C which were delivered to the mice with the corresponding pathogenic anti-β2GPI mAbs, as shown in Table 2. […] Similarly, mice which were preinfused with control IgM and received a cocktail of the peptide monomers (A+B+C), were not affected.

anti-β2GPI G-3 mAb = assay: Competition ELISA: inhibition of G-3 mAb binding to β2GPI; set-up: species or system human; conditions: 10 μM peptide concentration
Experimental: (§2) FIGS. 1A–1C are graphs showing inhibition of the anti-β2GPI ILA-1, ILA-3 and G-3 mAbs binding to β2GPI by competition assays using increasing concentrations of the inhibitory monomer peptides A, B and C, respectively, and of unrelated peptide D as control. The percent of inhibition was calculated as follows: % inhibition=O.D control−O.D with inhibitor/O.D control×100. Each point represents mean±SD of three different experiments.
(§3) (e) Inhibition of anti-β2GPI mAb binding to β2GPI by the inhibitory peptides. For competition ELISA tests, the anti-β2GPI mAbs (10 μg/ml) were preincubated (overnight at 4° C.) with varying concentrations of the peptides. The competition reaction was then transferred to β2GPI-coated γ-irradiated ELISA plates (Nunc), and the assay continued as described above. The percentage of inhibition was calculated as follows: % inhibition=O.D control −O.D with inhibitor/O.D control×100.
(§4) (2a) The specificity of interaction of the mAbs with the corresponding synthetic peptides A, B, C and control peptide D as monomers, was assessed by inhibition experiments as described in Materials and Methods, sections (e) and (f).

anti-β2GPI ILA-3 mAb = assay: Competition ELISA: inhibition of ILA-3 mAb binding to β2GPI; set-up: species or system human; conditions: 10 μM peptide concentration
Experimental: as §2, §3, §4

[2] = system: experimental APS induced by anti-β2GPI mAb ILA-3; assay: Murine experimental APS induced by ILA-3 mAb; type: in vivo, BALB/c mice; conditions: mice infused with ILA-3 mAb, peptide 40 μg/mouse daily 3 days, day 15
Experimental: as §1

anti-β2GPI ILA-1 mAb = assay: Cyto-ELISA: inhibition of ILA-1 mAb binding to HUVEC; set-up: species or system human; conditions: peptide concentration of 10 μM
Experimental: as §2, with “FIGS. 2A–2C” for “FIGS. 1A–1C”, “to human umbilical vein endothelial cells (HUVEC)” for “to β2GPI”, “as in FIG. 1 above.” for “as follows: % inhibition=O.D control−O.D with inhibitor/O.D control×100.”
(f) Anti-β2GPI mAb binding to endothelial cells in the presence of the inhibitory peptides. Human umbilical vein endothelial cells (HUVEC) were isolated as previously described and cultured under standard conditions (Jaffe et al., 1973). Briefly, umbilical cords were treated with collagenase (0.2% from Clostridium histolyticum, Boehringer) for 20 min at 37° C., cells were cultured in medium 199 with 20% FCS, 10 μg/ml growth supplement, 100 μg/ml heparin and antibiotics (streptomycin, penicillin), and used at passages 1–2 for plating onto gelatin-coated 96-well plates. Cyto-ELISA was performed as detailed before (Jaffe et al., 1973). Briefly, mAbs at different concentrations were added to HUVEC confluent wells, previously coated with 10 μg/ml β2GPI for 2 hours and fixed with 0.1% glutaraldehyde. The bound mAb was detected by further 1-hour incubation with alkaline phosphatase-conjugated goat anti-human IgM. […]

CATLRVYKGG [Peptide C]
% Fetal loss (Resorbed fetuses/Total fetuses) [1]: 7 ± 2% | Platelet count [1]: 1242 cells/mm^3 × 10^−3 | aPTT (activated partial thromboplastin time) [1]: 31 ± 4 s | aPTT (activated partial thromboplastin time) ([1]; listed as peptide C): 31 ± 4 s | inhibition of G-3 mAb binding to β2GPI (anti-β2GPI G-3 mAb): 98%

KDKATFGTHDG [Peptide B]
inhibition of ILA-3 mAb binding to β2GPI (anti-β2GPI ILA-3 mAb): 77% | % Fetal loss (Resorbed fetuses/Total fetuses) [2]: 6 ± 2% | Platelet count [2]: 1137 cells/mm^3 × 10^−3 | aPTT (activated partial thromboplastin time) [2]: 27 ± 2 s | aPTT (activated partial thromboplastin time) ([2]; listed as peptide B): 27 ± 2 s

NTLKTPRVGG [Peptide A]
inhibition of ILA-1 mAb binding to HUVEC (anti-β2GPI ILA-1 mAb): 95%
